The structures appear in SMILES notation.

In the test the test system is 22Rv1-Enz^R. Kind of test: 22Rv1-Enz^R cell proliferation assay. It counts as cell-based. The conditions noted are these: human prostate cancer cell line 22Rv1-Enz^R; 6-day culture, cell media changed every 24 hours; half maximal growth inhibition constant; read-out: 22Rv1-Enz^R proliferation assay GIC50. How it is done:
The human prostate cancer cell line, 22Rv1 has been reported to express a high level of AR-V7. According to one procedure, 22Rv1 is seeded at 50,000 cells/well on a 24-well plate in quadruplicate and treated with test compounds in concentrations ranging up to 20 μM for four days. Standard culture media is RPMI-1640 supplemented with 10% fetal bovine serum. The test compound initially is dissolved in DMSO at 50 mM. This stock solution is then diluted as needed for the indicated concentrations. At the end of the four-day period, cells are harvested using 1% trypsin and counted using an automated cell counter.
Selected compounds may be tested in the human prostate cancer cell line, 22Rv1-Enz^R as described in Geun Taek Lee et al., Molecular Cancer Therapeutics, 20:490-9 (2021). These procedures are similar to that described in Experimental Example 1, above, except that the assay conditions are a 6-day culture with cell media changed every 24 hours.
In the following Table (half maximal growth inhibition constant, GIC50): (*)-GIC50 2-10 μM; (++)-GIC50 1.0-2.0 μM; (+++)-GIC50<1.0 μM.
On to `O=C(CCCCCCCCOc1ccc(-c2csc(N3CCOCC3)n2)cc1)NCCCCC(=O)Nc1ccc(C2CCC(=O)NC2=O)cc1` (stereo not drawn) [Example 7, N-(5-((4-(2,6-Dioxopiperidin-3-yl)phenyl)amino)-5-oxopentyl)-9-(4-(2morpholinothiazol-4-yl)phenoxy)nonanamide], for which the IC50 is 1 to 2 µM.

For the compound `O=C(COc1ccc(C2CCC(=O)NC2=O)cc1)NCCOCCOCCOCCOc1c(-c2csc(N3CCOCC3)n2)ccc(F)c1F` (stereo not drawn) [Example 3, N-(2-(2-(2-(2-(2,3-Difluoro-6-(2-morpholinothiazol-4-yl)phenoxy)ethoxy)ethoxy)ethoxy)ethyl)-2-(4-(2,6-dioxopiperidin-3-yl)phenoxy)acetamide], the IC50 was in the range of 2 to 10 µM.

In the case of `O=C(CCCCCCCCOc1c(-c2csc(N3CCOCC3)n2)ccc(F)c1F)NCCCCC(=O)Nc1ccc(C2CCC(=O)NC2=O)cc1` (stereo not drawn) [Example 4, 9-(2,3-difluoro-6-(2-morpholinothiazol-4-yl)phenoxy)-N-(5-((4-(2,6-dioxopiperidin-3-yl)phenyl)amino)-5-oxopentyl)nonanamide], the IC50 is under 1 µM.

`O=C1CCC(c2ccc(OCC(=O)N3CCN(CCOCCOc4c(-c5csc(N6CCOCC6)n5)ccc(F)c4F)CC3)cc2)C(=O)N1` (stereo not drawn) [Example 2, 3-(4-(2-(4-(2-(2-(2,3-Difluoro-6-(2-morpholinothiazol-4-yl)phenoxy)ethoxy)ethyl)piperazin-1-yl)-2-oxoethoxy)phenyl)piperidine-2,6-dione]: the IC50 fell in the range of 1 to 2 µM.

`O=C(CCCCCCCCOc1c(-c2csc(N3CCOCC3)n2)ccc(F)c1F)NCCCCNC(=O)c1ccc(N2CCC(=O)NC2=O)cc1` [Example 15, N-(4-(9-(2,3-difluoro-6-(2-morpholinothiazol-4-yl)phenoxy)nonanamido)butyl)-4-(2,4-dioxotetrahydropyrimidin-1(2H)-yl)benzamide]: the IC50 lay in the range of 2 to 10 µM.

Turning to `O=C1CCC(c2ccc(OCCOCCOCCOCCn3cc(CCOc4c(-c5csc(N6CCOCC6)n5)ccc(F)c4F)nn3)cc2)C(=O)N1` (stereo not drawn) [Example 11, 3-(4-(2-(2-(2-(2-(4-(2-(2,3-difluoro-6-(2-morpholinothiazol-4-yl)phenoxy)ethyl)-1H-1,2,3-triazol-1-yl)ethoxy)ethoxy)ethoxy)ethoxy)phenyl)piperidine-2,6-dione], the IC50 was 1 to 2 µM.

For `O=C1CCC(c2ccc(NC(=O)CCCCCCCCOc3c(-c4csc(N5CCOCC5)n4)ccc(F)c3F)cc2)C(=O)N1` (stereo not drawn) [Example 12, 9-(2,3-difluoro-6-(2-morpholinothiazol-4-yl)phenoxy)-N-(4-(2,6-dioxopiperidin-3-yl)phenyl)nonanamide], the IC50 is 2 to 10 µM.

Turning to `O=C(COc1ccc(C2CCC(=O)NC2=O)cc1)NCCCCCCCCNC(=O)COc1c(-c2csc(N3CCOCC3)n2)ccc(F)c1F` (stereo not drawn) [Example 1, 2-(2,3-Difluoro-6-(2-morpholinothiazol-4-yl)phenoxy)-N-(8-(2-(4-(2,6-dioxopiperidin-3-yl)phenoxy)acetamido)octyl)acetamide], the IC50 was under 1 µM.

In the case of `O=C(CCCCCCCCOc1c(-c2csc(N3CCOCC3)n2)ccc(F)c1F)NCCCCCCC(=O)Nc1ccc(C2CCC(=O)NC2=O)cc1` (stereo not drawn) [Example 13, 9-(2,3-difluoro-6-(2-morpholinothiazol-4-yl)phenoxy)-N-(7-((4-(2,6-dioxopiperidin-3-yl)phenyl)amino)-7-oxoheptyl)nonanamide], the IC50 lay within 1 to 2 µM.

For the compound `O=C(CCCCCCCCOc1c(-c2csc(N3CCOCC3)n2)ccc(F)c1F)NCCOCCOCC(=O)Nc1ccc(C2CCC(=O)NC2=O)cc1` (stereo not drawn) [Example 14, 9-(2,3-difluoro-6-(2-morpholinothiazol-4-yl)phenoxy)-N-(2-(2-(2-((4-(2,6-dioxopiperidin-3-yl)phenyl)amino)-2-oxoethoxy)ethoxy)ethyl)nonanamide], the IC50 lay in the range of 1 to 2 µM.

Take `O=C1CCC(c2ccc(OCCOCCOCCn3cc(CCOc4c(-c5csc(N6CCOCC6)n5)ccc(F)c4F)nn3)cc2)C(=O)N1` (stereo not drawn) [Example 10, 3-(4-(2-(2-(2-(4-(2-(2,3-difluoro-6-(2-morpholinothiazol-4-yl)phenoxy)ethyl)-1H-1,2,3-triazol-1-yl)ethoxy)ethoxy)ethoxy)phenyl)piperidine-2,6-dione]: the IC50 was in the range of 2 to 10 µM.

As for `O=C(CCCCCCCCOc1cccc(-c2csc(N3CCOCC3)n2)c1)NCCCCC(=O)Nc1ccc(C2CCC(=O)NC2=O)cc1` (stereo not drawn) [Example 6, N-(5-((4-(2,6-dioxopiperidin-3-yl)phenyl)amino)-5-oxopentyl)-9-(3-(2morpholinothiazol-4-yl)phenoxy)nonanamide], the IC50 fell in the range of 2 to 10 µM.
